Like-named read-outs stand apart in the source and are kept apart here.
What was measured:
[1] = test system: Second-instar and fifth-instar larvae of tobacco cutworm; assay: Test 2: Tobacco Cutworm Larva Dipping Test; assay type: in vivo
Description: (§1) To a mixture of 20 parts of the compound of the present invention and 20 parts of Sorpol SM-200 (registered trademark for the product supplied by Toho Chemical Industrial Co., Ltd.) was added 60 parts of xylol, and the mixture was sufficiently blended. The obtained emulsifiable concentrate was diluted at a predetermined concentration with distilled water, and the obtained dilution was used.
A dilution having a chemical concentration of 100 or 20 ppm was prepared in the same manner as described in Test 1.
Second-instar and fifth-instar larvae of tobacco cutworm were dipped in the dilution for 5 seconds, and the excessive dilution was removed by a filter paper. Then, the larvae were set free in a plastic cup and an artificial diet was supplied thereto. The cup was allowed to stand still in a thermostat chamber maintained at 25° C. After 24 hours, the numbers of the killed and living larvae were counted and the mortality was calculated. The test was made on three cups and the result was expressed by an average value.

[2] = test system: German cockroach; assay: Test 7: Effect on German Cockroach; assay type: in vivo; conditions: Blattella germanica, male adults, 24 hours, agonized and killed; for mortality at 10 mg/m2: 10 mg/m^2; for mortality at 50 mg/m2: 50 mg/m^2
Description: The bottom face of a high Petri dish having a diameter of 9 cm and a height of 9 cm was treated with 50 or 10 mg/m^2 of a test compound and the dish was air-dried. In order to prevent the adults from escaping from the dish, the inner wall of the dish was treated with butter. Then, 10 male adults of German cockroach were set free in each dish, and the dish was placed in a thermostat chamber maintained at 25° C. After 24 hours, the number of agonized and killed adults was counted. The test was made on two dishes and the average value was calculated.

[3] = test system: resistant green rice leafhopper (collected at Nakagawara); assay: Test 3: Effect on Resistant Green Rice Leafhopper; assay type: in vivo, Nephotettix cincticeps Uhler; conditions: Nephotettix cincticeps, 24 h, read-out: Mortality (%) Green Rice Leafhopper Collected at Nakagawara
Description: as §1
(§2) Seedlings (having 2 to 3 leaves) of paddy rice were hydroponically cultured in a pot having a diameter of 5 cm. A chemical dilution having a concentration of 100 or 20 ppm, prepared in the same manner as described in Test 1, was applied with a sprayer at a rate of 3 ml per pot. The treated seedlings were air-dried and covered with a metal net cylinder, and female adults of resistant green rice leafhopper (collected at Nakagawara) and sensitive green rice leafhopper (collected at Chigasaki) were set, respectively, free in the pot at a density of 10 adults per pot. After of 24 hours, the numbers of killed and living adults were counted and the mortality was calculated. The test was made on three pots and the average value was calculated.

[4] = test system: sensitive green rice leafhopper (collected at Chigasaki); assay: Test 3: Effect on Sensitive Green Rice Leafhopper; assay type: in vivo; conditions: Nephotettix cincticeps, female adults, 24 hours
Description: as §1, §2

[5] = test system: two-spotted spider mite; assay: Test 6: Effect on Two-Spotted Spider mite adults; assay type: in vivo; conditions: Tetranychus urticae
Description: as §1
A kidney bean leaf disc perforated with a cork borer (15 mm in diameter) was placed on water-impreganated absorbent cotton (2 cm×2 cm), and 10 adults of two-spotted spider mite were set free. A chemical dilution having a concentration of 500 ppm was applied with an applicator in an amount of 3 ml.
The leaf disc-placed absorbent cotton was placed in a thermostat chamber maintained at 25° C. After 24 hours, the number of killed adults was counted and the mortality was calculated. The test was made on three leaf discs and the average value was calculated.

[6] = Test 9: Toxicity Test (acute oral, mice); conditions: mouse, in vivo, po
Description: In the fish toxicity test, the test compound was dissolved in acetone to form a 1% solution, and a predetermined amount of the solution was used. In the mouse toxicity test, the test compound of the present invention was dissolved or suspended in corn oil, and a predetermined amount of the solution or suspension was used.
A predetermined amount of a solution or suspension of a test compound in corn oil was orally administered to male mice having a body weight of 19 to 23 g (0.2 ml per 10 g of the body weight). After 7 days, the number of killed mice was counted and the influences on the mice were examined.

[7] = test system: third-instar larvae of diamond back moth; assay: Test 4: Effect on Diamond Back Moth; assay type: in vivo; conditions: Plutella xylostella, 24 hours
Description: as §1
Cabbage leaves were spread in a plastic cup, and 10 third-instar larvae of diamond back moth were set free in the cup.
A chemical dilution having a concentration of 100 or 20 ppm, prepared in the same manner as described in Test 1, was applied from an applicator at a rate of 3 ml per cup.
After scattering of the chemical dilution, the cup was covered, and after 24 hours, the numbers of killed and living larvae were counted and the mortality was calculated. The test was made on three cups and the average value was calculated.

[8] = 20 ppm, second-instar larvae, 24 hours, read-out: Mortality (%) Second-Instar Larvae
[9] = 100 ppm, second-instar larvae, 24 hours, read-out: Mortality (%) Second-Instar Larvae
[10] = topical, 24 h, read-out: Mortality (%) Fifth-Instar Larvae
[11] = 500 ppm, adults, 24 hours, read-out: Mortality (%)

SMILES	mortality at 10 mg/m2 [2] [%]	mortality at 50 mg/m2 [2] [%]	mortality at 20 ppm [3] [%]	mortality at 100 ppm [3] [%]	mortality at 20 ppm [4] [%]	mortality at 100 ppm [4] [%]	mortality at 20 ppm [7] [%]	mortality at 100 ppm [7] [%]	also measured
CC(C)(COCc1ccc(F)c(Oc2ccccc2)c1)c1ccc(F)c(Cl)c1 [Compound 50, 3-Phenoxy-4-fluorobenzyl 2-(3-chloro-4-fluorophenyl)-2-methylpropyl ether]	100	100	–	–	–	–	–	–	mortality at 20 ppm [1, 8]: 90%; mortality at 100 ppm [1, 9]: 100%; mortality at 20 ppm [1, 10]: 80%; mortality at 100 ppm [1, 10]: 100%
CC(C)c1ccc(C(C)(C)COCc2ccc(F)c(Oc3ccccc3)c2)cc1 [Compound 58]	100	100	100	100	100	100	–	–	mortality at 500 ppm [5, 11]: 100%
CC(C)C(COCc1ccc(F)c(Oc2ccccc2)c1)c1ccc(Cl)cc1 (centres unmarked) [Compound 8, 3-Phenoxy-4-fluorobenzyl 2-(4-chlorophenyl)-3-methylbutyl ether]	–	–	100	100	100	100	–	–	LD50 at 168 h [6]: > 500 mg/kg
CC(C)(COCc1ccc(F)c(Oc2ccccc2)c1)c1ccc2ccccc2c1 [Compound 12, 3-Phenoxy-4-fluorobenzyl 2-(naphthalene-2-yl)-2-methylpropyl ether]	–	–	95	100	80	100	–	–	LD50 at 168 h [6]: > 500 mg/kg
CCC(C)Oc1ccc(C(C)(C)COCc2ccc(F)c(Oc3ccccc3)c2)cc1 (centres unmarked) [Compound 63]	100	100	100	100	100	100	–	–	mortality at 500 ppm [5, 11]: 100%
CC(C)(COCc1cc(Oc2ccccc2)ccc1F)c1ccc(Cl)cc1 [Compound 32, 3-Phenoxy-6-fluorobenzyl 2-(4-chlorophenyl)-2-methylpropyl ether]	–	–	–	–	–	–	–	–	LD50 at 168 h [6]: > 500 mg/kg
CC(C)(COCc1ccc(F)c(Oc2ccccc2F)c1)c1ccc(Cl)cc1 [Compound 11, 3-(2-Fluorophenoxy)-4-fluorobenzyl 2-(4-chlorophenyl)-2-methylpropyl ether]	100	100	100	100	100	100	100	100	mortality at 500 ppm [5, 11]: 100%
Cc1cccc(Oc2cc(COCC(C)(C)c3ccc(Cl)cc3)ccc2F)c1 [Compound 22, 3-(3-Methylphenoxy)-4-fluorobenzyl 2-(4-chlorophenyl)-2-methylpropyl ether]	–	–	75	100	60	100	–	–	–
CCOc1ccc(Oc2cc(COCC(C)(C)c3ccc(OCC)cc3)ccc2F)cc1 [Compound 53, 3-(4-Ethoxyphenoxy)-4-fluorobenzyl 2-(4-ethoxyphenyl)-2-methylpropyl ether]	100	100	100	100	90	100	–	–	–
CC(C)(COCc1ccc(F)c(Oc2ccccc2)c1)c1ccc2c(c1)OCO2 [Compound 33, 3-Phenoxy-4-fluorobenzyl 2-(3,4-methylenedioxyphenyl)-2-methylpropyl ether]	–	–	100	100	100	100	–	–	–
CCOc1cccc(C(C)(C)COCc2ccc(F)c(Oc3ccccc3)c2)c1 [Compound 57]	–	–	100	100	100	100	100	100	–
Cc1ccc(C(C)(C)COCc2cc(Cl)cc(Oc3ccccc3)c2)cc1 [Compound 37, 3-Phenoxy-5-chlorobenzyl 2-(4-methylphenyl)-2-methylpropyl ether]	–	–	–	–	–	–	–	–	LD50 at 168 h [6]: > 500 mg/kg
CC(C)(COCc1ccc(F)c(Oc2ccccc2)c1)c1ccc(I)cc1 [Compound 66, 3-Phenoxy-4-fluorobenzyl 2-(4-iodophenyl)-2-methylpropyl ether]	100	100	100	100	100	100	90	100	mortality at 20 ppm [1, 8]: 90%; mortality at 100 ppm [1, 9]: 100%; mortality at 20 ppm [1, 10]: 75%; mortality at 100 ppm [1, 10]: 100%; mortality at 500 ppm [5, 11]: 100%
CC(=O)c1ccc(C(C)(C)COCc2ccc(F)c(Oc3ccccc3)c2)cc1 [Compound 40]	–	–	–	–	–	–	–	–	LD50 at 168 h [6]: > 500 mg/kg
CC(C)(COCc1ccc(F)c(Oc2ccccc2)c1)c1cccc(C(F)(F)F)c1 [Compound 17, 3-Phenoxy-4-fluorobenzyl 2-(3-trifluoromethylphenyl)-2-methylpropyl ether]	–	–	100	100	90	100	–	–	–
CC(C)(COCc1ccc(F)c(Oc2ccccc2)c1)c1ccc([N+](=O)[O-])cc1 [Compound 30, 3-Phenoxy-4-fluorobenzyl 2-(4-nitrophenyl)-2-methylpropyl ether]	–	–	90	100	80	100	–	–	–
CCOc1ccc(C(CC)COCc2ccc(F)c(Oc3ccccc3)c2)cc1 (centres unmarked) [Compound 47, 3-Phenoxy-4-fluorobenzyl 2-(4-ethoxyphenyl)-butylether]	100	100	–	–	–	–	100	100	mortality at 500 ppm [5, 11]: 85%
CCCOc1ccc(C(C)(C)COCc2ccc(F)c(Oc3ccccc3)c2)cc1 [Compound 65]	100	100	100	100	100	100	100	100	–
CCOc1ccc(C(C)(CC)COCc2ccc(F)c(Oc3ccccc3)c2)cc1 (centres unmarked) [Compound 55, 3-Phenoxy-4-fluorobenzyl 2-(4-ethoxyphenyl)-2-methylbutyl ether]	100	100	–	–	–	–	100	100	–
CCOc1ccc(C(COCc2ccc(F)c(Oc3ccccc3)c2)C(C)C)cc1 (centres unmarked) [Compound 62, 3-Phenoxy-4-fluorobenzyl 2-(4-ethoxyphenyl)-3-methylbutyl ether]	–	–	100	100	100	100	100	100	–
CCOP(=S)(OCC)Oc1ccc(=O)n(-c2ccccc2)n1 [(d), 0,0-diethyl-0-(3-oxo-2-phenyl-2H-pyridazin-6-yl)-phosphorothioate, reference compound]	–	–	–	–	–	–	–	–	mortality at 500 ppm ([5]; 24 h): 80%

Source: patent US4599362A, “2-aryl-ethyl ether derivatives and insecticidal and acaricidal agents containing said derivatives” (priority 1980, dated 1986)
